We go through five compounds from patent US20060193881A1, “Method and compositions for attracting mosquitoes employing (R)-(-) isomers of 1-alken-3-ols” (Bedoukian Research, Inc., priority 2005, published 2006).

What all share (type): in vivo
Assay [1] relates to mosquitoes. Put plainly: Mosquito Magnet Liberty trap field test with porous frit, Danbury, Conn. The conditions noted are these: 1 gram on porous frit, 20-30 mg/day release. Here is the method: Tests were conducted with the Mosquito Magnet Liberty model traps manufactured by American Biophysics Corp. Traps were spaced 65-70 feet apart at the edge of a wetland in Danbury, Conn., at least 25 feet from any buildings. 1 gram of test chemical was added to a clean porous frit of the type normally used in the trap, releasing approximately 20-30 mg/day. In the first test, racemic 1-octen-3-ol and (R)-(-)-1-octen-3-ol were rotated among four traps over 8 days. In the second test, (S)-(+)-1-octen-3-ol and no treatment were rotated between three traps over nine days.

For assay [2], the system named is mosquitoes. Put plainly: CO2 fan trap (John W. Hock model 1012) field test with wax lures, Danbury, Conn. The conditions noted are these: wax lure, approx. 0.17 mg/hour release, CO2 approx. 140 ml/minute, average of four three-day cycles. The method, then:
The following tests were conducted in Connecticut in September 2004. Mosquito traps model 1012 manufactured by John W. Hock Company in Gainesville, Fla. were used in these experiments. The traps use a stream of CO2 directed in the vicinity of a collection bag, with a fan used to blow mosquitoes into the bag. The light supplied with the trap was turned off. The traps were spaced 65-70 feet apart at the edge of a wetland in Danbury, Conn., at least 25 feet from any buildings. The (R) and (S)-1-octen-3-ol was incorporated into a wax lure of the type manufactured by BioSensory, Inc. and placed near a stream of CO2 which was being released at a rate of approximately 140 ml/minute. The traps were operated from approximately 4:00PM until 9:00AM the next day. Daytime temperatures were 70-75° F. during the trials. Average weight loss from the wax lures during the test was approximately 4 mg/day, or 0.17 mg/hour. Three traps were used, with either (R)-1-Octen-3-ol, (S)-1-Octen-3-ol, or no treatment, rotated among the traps over a three-day cycle. Four complete cycles were performed and the results for each treatment were averaged.
The traps with no attractant were considered as the baseline catch of mosquitoes and the results of the catches with the isomers were compared to this baseline value.

Assay [3] has as its system mosquitoes. Put plainly: Mosquito Magnet Pro trap field test of 1-decen-3-ol enantiomers, Florida. The conditions noted are these: 1 gram in fibrous lure; for total mosquitoes caught: lures rotated between traps over nine days. The method, then:
The tests were conducted in Florida using Mosquito Magnet Pro mosquito traps manufactured by American Biophysics, rotating the lures between traps over a period of nine days, using 1 gram of each test material in a fibrous lure of the type normally used in the traps.

Assay [4] deals with mosquitoes. In words: John W. Hock fan-driven CO2 trap field test, small amount (R) vs large amount racemic, Danbury Conn. The conditions noted are these: 14 days; for average mosquitoes caught: CO2 150 ml/min. The method, then: A test similar to example 5 was conducted in Danbury Conn. using fan driven-traps manufactured by John W. Hock Company in Gainesville Fla. using 150 ml/min CO2. To compare the attractiveness of a large amount of racemic 1-octen-3-ol to a small amount of (R)-(-)-1-octen-3-ol, one lure contained 50 mg of (R)-(-)-1-octen-3-ol diluted in 1.5 ml diethyl phthalate, releasing 1.5 mg/day or less was evaluated against a lure containing 1660 mg of racemic 1-octen-3-ol (830 mg of each enantiomer) diluted in 1.5 ml of diethyl phthalate, and releasing approximately 40 mg of 1-octen-3-ol/day. After rotation between the two traps over 14 days, the lure with the 1660 mg of racemic octenol caught an average of 9.4 mosquitoes, while the lure containing 50 mg of (R)-(-)-1-octen-3-ol caught an average of 11.8 mosquitoes, representing an increase of 26%.

The subject of assay [5] is mosquitoes. Put plainly: Mosquito Magnet Pro trap field test with or without ammonia source, Gainesville, Fla. As to conditions: lure with 230 mg (R)-(-)-1-octen-3-ol; traps producing carbon dioxide and heat; twenty-day cycle.
Description: The test was conducted in Gainesville, Fla. using Mosquito Magnet Pro model mosquito traps manufactured by American Biophysics Corp. that produced carbon dioxide and heat. The traps were provided with either lures having 230 mg (R)-(-)-1-octen-3-ol isomer or lures with 230 mg (R)-(-)-1-octen-3-ol isomer in combination with a source of ammonia provided by a lure containing ammonium bicarbonate in a controlled release polymer matrix, Bactrocera (Dacus) olae, Product code BF L080, provided by AgriSense-BCS Limited, Taffs Mead Road, Treforest Industrial Estate, Pontypridd, CF37 5SU, UK. The traps were rotated between the locations for a twenty-day cycle.
Assay [6] relates to mosquitoes. Put plainly: Mosquito Magnet Liberty trap field test with or without ammonium bicarbonate lure, Redding, Conn. The conditions noted are these: lure with 800 mg (R)-(-)-1-octen-3-ol in waxy carrier; rotated daily for 15 days. The method, then: A test similar to Example 3 was conducted in Redding, Conn., employing Mosquito Magnet Liberty traps rotated daily for 15 days. One trap was provided with a lure containing 470 mg (R)-(-)-1-octen-3-ol isomer in a waxy carrier plus 5 grams of ammonium bicarbonate provided by a lure containing ammonium bicarbonate in a controlled release polymer matrix, provided by […]-BCS Limited ([…]-BCS Limited […] Road, Treforest Industrial Estate, Pontypridd, CF37 5SU UK) and the second trap was provided with a lure containing 800 mg (R)-(-)-1-octen-3-ol isomer in the waxy carrier. The trap with the 800 mg (R)-(-)-1-octen-3-ol isomer attracted an average of 3.8 mosquitoes daily whereas the traps with only 470 mg (R)-(-)-1-octen-3-ol isomer plus the ammonium carbonate attracted average of 6.9 mosquitoes daily, an average increase of about 82%.

Assay [7] relates to mosquitoes. Put plainly: Mosquito Magnet Liberty trap field test, effect of (S) isomer on (R) isomer, Danbury Conn. As to conditions: 14 days. Here is the method: A test to compare the effect of the presence of (S)-(+)-1-octen-3-ol on the efficacy of (R)-(-)-1-octen-3-ol was conducted in Danbury Conn. One lure contained 200 mg of (R)-(-)-1-octen-3-ol diluted in diethyl phthalate to slow release to under 1.7 mg/day. The other lure was identical except that it also contained 200 mg of (S)-(+)-1-octen-3-ol (equivalent to 400 mg of racemic 1-octen-3-ol). The lures were rotated over 14 days between two American Biophysics Mosquito Magnet Liberty traps. The lure containing the 200 mg of (R)-(-)-1-octen-3-ol plus 200 mg (S)-(+)-1-octen-3-ol caught an average of 5.6 mosquitoes/day, while the lure containing 200 mg of (R)-(-)-1-octen-3-ol caught an average of 8.1 mosquitoes daily, representing an increase in efficacy of 45%.

The structures appear in SMILES notation.

As to `C=C[C@@H](O)CCCCC` [(S)-(+)-1-octen-3-ol, reference compound], the “fewer mosquitoes caught than the trap with no attractant” value in assay [1] (second test, three traps over nine days) was 37%. Also, the “more mosquitoes captured than the baseline (traps with no attractant)” value in assay [2] is reported as 35%.

For the compound `C=C[C@H](O)CCCCCCC` [(R)-(-)-1-decen-3-ol], the total mosquitoes caught in assay [3] worked out at 89 mosquitoes. For the same compound, the “improvement in catch vs (S)-(+)-1-decen-3-ol” value in assay [3] (nine days) is reported as 89%.

In the case of `C=CC(O)CCCCC` (racemic) [racemic octenol, 1-octen-3-ol, reference compound], in assay [4] (lure with 1660 mg racemic in 1.5 ml diethyl phthalate, approx. 40 mg/day release), the average mosquitoes caught came out at 9.4 mosquitoes.

Compound `C=C[C@@H](O)CCCCCCC` [(S)-(+)-1-decen-3-ol, reference compound] displayed a total mosquitoes caught in assay [3] of 47 mosquitoes.

Regarding `C=C[C@H](O)CCCCC` [(R)-(-)-1-octen-3-ol], in assay [5], the “average number of mosquitoes attracted daily” value stood at 14 mosquitoes. For the same compound, the “increase in catch vs lure with 1660 mg racemic octenol” value in assay [4] (50 mg (R) isomer) stood at 26%. The average mosquitoes caught was found to be 11.8 mosquitoes in assay [4] (lure with 50 mg (R) in 1.5 ml diethyl phthalate, 1.5 mg/day or less release) and 8.1 mosquitoes daily in assay [7] (lure with 200 mg (R)-(-)-1-octen-3-ol in diethyl phthalate, release under 1.7 mg/day). Also, the “more mosquitoes caught than trap with 50:50 racemic mixture of 1-octen-3-ol” value in assay [1] (first test, four traps over 8 days) is 18%. For the same compound, the “more mosquitoes captured than the baseline (traps with no attractant)” value in assay [2] is on record as 88%. In addition, the “average mosquitoes attracted daily” value in assay [6] is given as 3.8 mosquitoes daily. Further, the “increase in efficacy vs lure also containing 200 mg (S)-(+)-1-octen-3-ol” value in assay [7] (200 mg (R) isomer) came out at 45%.
